Consider 14 compounds from US20140179681A1, “METHODS AND COMPOSITIONS OF TARGETED DRUG DEVELOPMENT” (priority 2010, published 2014).

Where a name gives a salt, the structure may show the parent alone. Read-outs that look alike come from different tables or passages of the source.

The subject of assay [1] is epithelial carcinoma A431 cell line. Briefly: MTT Cell Proliferation Assay, A431 cells. The format is cell-based. To be noted: for MTT Assay IC50(A431/MDBK): ratio in parentheses: ratio MDBK IC50 / A431 IC50 (selectivity). The gist of the method: (§1)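 Viability was measured by mitochondrial MTT reduction after cells were exposed to compound for 3 days in reduced-serum medium. Inhibition was calculated per plate against 0.5% DMSO controls.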

Assay [2] concerns the target T1, EGFR (Homo sapiens, UniProt P00533).
T1 construct: host or cells: A431
As to the kind of experiment: EGFR in-cell Western (ICW) screening protocol (EGFR inhibition assay). In kind it is cell-based. More on the design: ICW 1 / ICW 2 / ICW Avg: unit not given here. Particulars: for ICW Screen: Table 11; for ICW Screen / ICW assay: % Inhibition of EGF dependent EGFR phosphorylation in A431 cells, compound 125 μM in assay; for ICW Avg / ICW 1 / ICW 2: ICW assay; for ICW Avg: average of runs 1 and 2; for ICW 1: run 1; for ICW 2: run 2; for ICW assay: Table 10. In a few lines: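 Serum-starved A431 cells (2 h) were pretreated with compound for 4 h at 37° C, then stimulated with EGF (10 ng/ml final, or 6.6 or 12.5 ng/ml in some runs) for 10 min. After formaldehyde fixation, phospho-EGFR (Tyr1173, or Tyr1045 in some runs) and total EGFR were detected by in-cell Western immunostaining.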

The test system of assay [3] is MDBK line. As to the kind of experiment: MTT Cell Proliferation Assay, MDBK cells. The format is cell-based, bovine. In a few lines: as §1
Where [4] appears, read: Homo sapiens, A-431, A431 cells, first value of cell, read-out: MTT Assay IC50(A431/MDBK): A431.
Where [5] appears, read: Bos taurus, MDBK, MDBK cells, second value of cell, read-out: MTT Assay IC50(A431/MDBK): MDBK.
Setting [6] is: Homo sapiens, A-431, 72 h, Table 10, first of x/y(ratio): A431, three day treatment, unit not printed (doses in μM), read-out: MTT assay (first value).
Setting [7] is: Bos taurus, MDBK, 72 h, Table 10, second of x/y(ratio): MDBK, three day treatment, unit not printed (doses in μM), read-out: MTT assay (second value).
The mark [8] stands for this setting: Homo sapiens, A-431, first value of 'a/b (c)', taken as A431 cells, read-out: MTT Screen, first value of cell.
Where [9] appears, read: Bos taurus, MDBK, second value of 'a/b (c)', taken as MDBK cells, read-out: MTT Screen, second value of cell.

T1 sequence (P00533 25-1210): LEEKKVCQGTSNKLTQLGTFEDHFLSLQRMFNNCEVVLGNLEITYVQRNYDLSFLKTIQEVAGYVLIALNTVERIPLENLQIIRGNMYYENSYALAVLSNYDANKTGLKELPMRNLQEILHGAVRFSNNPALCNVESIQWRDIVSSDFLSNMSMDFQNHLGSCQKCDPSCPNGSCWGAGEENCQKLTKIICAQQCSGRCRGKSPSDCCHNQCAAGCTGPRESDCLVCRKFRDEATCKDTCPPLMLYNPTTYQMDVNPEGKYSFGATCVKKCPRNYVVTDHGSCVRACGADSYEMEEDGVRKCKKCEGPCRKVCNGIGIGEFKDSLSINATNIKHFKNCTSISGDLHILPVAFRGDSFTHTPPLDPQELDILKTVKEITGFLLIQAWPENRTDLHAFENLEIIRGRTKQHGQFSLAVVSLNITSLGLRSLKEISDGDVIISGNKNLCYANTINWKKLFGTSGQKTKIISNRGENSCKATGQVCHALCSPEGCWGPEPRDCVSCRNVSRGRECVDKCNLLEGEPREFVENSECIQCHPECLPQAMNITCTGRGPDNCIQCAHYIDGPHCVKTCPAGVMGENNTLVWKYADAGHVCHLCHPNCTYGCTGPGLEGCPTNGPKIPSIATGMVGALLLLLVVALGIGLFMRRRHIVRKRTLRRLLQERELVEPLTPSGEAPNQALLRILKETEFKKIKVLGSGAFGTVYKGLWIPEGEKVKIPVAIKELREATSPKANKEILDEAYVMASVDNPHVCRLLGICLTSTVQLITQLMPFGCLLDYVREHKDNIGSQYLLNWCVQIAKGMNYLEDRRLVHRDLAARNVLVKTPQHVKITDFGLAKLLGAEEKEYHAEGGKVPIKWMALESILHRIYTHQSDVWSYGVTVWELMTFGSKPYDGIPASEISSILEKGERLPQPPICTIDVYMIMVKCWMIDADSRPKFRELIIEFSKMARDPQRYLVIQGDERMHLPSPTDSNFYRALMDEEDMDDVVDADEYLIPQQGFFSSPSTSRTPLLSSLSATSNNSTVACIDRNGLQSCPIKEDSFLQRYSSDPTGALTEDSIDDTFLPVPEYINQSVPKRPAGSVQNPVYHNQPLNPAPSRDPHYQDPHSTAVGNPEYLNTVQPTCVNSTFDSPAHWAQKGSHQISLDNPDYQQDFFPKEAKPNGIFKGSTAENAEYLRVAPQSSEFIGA

In the case of `Cc1c(O)ccc2c(CN3CCN(Cc4ccc5c(c4)OCO5)CC3)cc(=O)oc12` [AD4-10491], the IC50 in assay [1] (Table 11, first of x/y(ratio): A431, unit not printed (doses in μM), read-out: MTT Screen (first value)) amounted to 22.2 µM; in assay [3] (Table 11, second of x/y(ratio): MDBK, unit not printed (doses in μM), read-out: MTT Screen (second value)) it was 40.6 µM. Moreover, the “ICW Screen” value in assay [2] was 29.223.

Consider `Cc1nc(Nc2nc3c(c(-c4ccccc4)n2)CCCC3)nc2c(C)cccc12` [12229 + TFA], for which the IC50 in assay [1] (setting [4]) was 19.2 µM. For the same compound, the “MTT Assay IC50(A431/MDBK): ratio in parentheses” value (from here on “MTT Assay IC50(A431/MDBK): ratio”) in assay [1] turned out to be 1.08. In assay [2], the “ICW Avg” value is recorded as 25.97, the “ICW 1” value turned out to be 16.57 and the “ICW 2” value is 35.37. Also, the IC50 in assay [3] (setting [5]) came to 20.9 µM.

`COc1cccc2c(C)nc(Nc3nc(-c4ccc(F)cc4)cc(=O)[nH]3)nc12` [compound 12778]: the IC50 in assay [1] (setting [4]) came to 4.66 µM. For the same compound, in assay [1], the “MTT Assay IC50(A431/MDBK): ratio” value was 1.15. In addition, in assay [2], the “ICW Avg” value was determined as 37.56, the “ICW 1” value worked out at 31.05 and the “ICW 2” value amounted to 44.08. For the same compound, in assay [3] (setting [5]), the IC50 was 5.34 µM.

Turning to `CC(C)c1ccc(NC(=S)Nc2ccc(S(=O)(=O)Nc3ccccc3)cc2)cc1` [AD4-12820], the values for the IC50 in assay [1] (setting [6]) and in assay [3] (setting [7]) were 5.98 µM and 5.93 µM, respectively. In assay [2], this compound had an ICW assay of 47.471.

`CCCc1c(C)[nH]c(Nc2nc(C)c3cc(C)ccc3n2)nc1=O` [compound 12661]: in assay [1] (setting [4]), the IC50 came out at 43.1 µM. The “MTT Assay IC50(A431/MDBK): ratio” value in assay [1] is recorded as 0.89. Further, in assay [2], the “ICW Avg” value stood at 35.24, the “ICW 1” value is on record as 29.34 and the “ICW 2” value came to 41.14. Besides, the IC50 in assay [3] (setting [5]) amounted to 38.2 µM.

Regarding `Cc1cccc(NC(=S)Nc2ccc(S(=O)(=O)Nc3ccc(Cl)c(Cl)c3)cc2)c1` [AD4-12442], the results for the IC50 in assay [1] (setting [6]) and in assay [3] (setting [7]) were 5.59 µM and 5.76 µM, respectively. Further, the ICW assay in assay [2] was found to be 79.1185.

With `Cc1ccc2c(C)nc(Nc3nc(C(C)C)cc(=O)[nH]3)nc2c1` [compound 11472], the IC50 in assay [1] (setting [4]) turned out to be 24.7 µM. Further, in assay [2], the “ICW Avg” value is given as 59.32, the “ICW 1” value amounted to 51.74 and the “ICW 2” value amounted to 66.90. For the same compound, in assay [3] (setting [5]), the IC50 is 19.4 µM.

Turning to `CCCCc1c(C)nc(Nc2nc(C)c3ccccc3n2)[nH]c1=O` [12743 + TFA], the IC50 in assay [1] (A431 cells, first value of cell, read-out: MTT Assay IC50(A431/MDBK): A431) stood at 6.88 µM. Further, the “MTT Assay IC50(A431/MDBK): ratio” value in assay [1] was found to be 1.43. Moreover, in assay [2], the “ICW Avg” value is given as 25.65, the “ICW 1” value came to 9.17 and the “ICW 2” value is 42.12. Further, the IC50 in assay [3] (MDBK cells, second value of cell, read-out: MTT Assay IC50(A431/MDBK): MDBK) was 9.86 µM.

For the compound `O=C(NC(=S)Nc1ccc(S(=O)(=O)N2CCCCCC2)cc1)C1CCC1` [AD4-12104], the IC50 in assay [1] (setting [8]) was 39 µM; in assay [3] (setting [9]), 37.6 µM. Moreover, the “ICW Screen (ICW Inhibition)” value in assay [2] turned out to be 41.204.

Regarding `O=C(NC(=S)Nc1ccc(S(=O)(=O)NCCc2ccccc2)cc1)C1CC1` [AD4-10120], the IC50 is 22.8 µM in assay [1] (setting [8]) and 39.3 µM in assay [3] (setting [9]). For the same compound, the “ICW Screen (ICW Inhibition)” value in assay [2] is 39.873.

As for `COc1ccc(N2CCN(Cc3cc(=O)oc4cc5c(cc34)OCO5)CC2)cc1` [AD4-10209], the IC50 in assay [1] (Homo sapiens, A-431, Table 11, first of x/y(ratio): A431, unit inferred, read-out: MTT Follow-up (first value)) was found to be 2.5 µM; in assay [3] (Bos taurus, MDBK, Table 11, second of x/y(ratio): MDBK, unit inferred, read-out: MTT Follow-up (second value)), 50.1 µM. In assay [2], the “ICW Screen” value is −10.6.

With `Cc1nc(Nc2nc(=O)c3c([nH]2)CCCC3)nc2c(C)cccc12` [11436 + TFA], the IC50 in assay [1] (setting [4]) amounted to 5.86 µM. In addition, the “MTT Assay IC50(A431/MDBK): ratio” value in assay [1] came out at 0.48. Also, in assay [2], the “ICW Avg” value came out at 59.65, the “ICW 1” value turned out to be 59.16 and the “ICW 2” value was 60.14. The IC50 in assay [3] (setting [5]) was determined as 2.8 µM.

For `Cc1ccc2nc(Nc3nc(=O)c(C)c(C)[nH]3)nc(C)c2c1` [12629 + TFA], the IC50 in assay [1] (setting [4]) was found to be 12.7 µM. Besides, the “MTT Assay IC50(A431/MDBK): ratio” value in assay [1] worked out at 0.85. Further, in assay [2], the “ICW Avg” value is listed as 25.89, the “ICW 1” value is recorded as 19.83 and the “ICW 2” value came out at 31.95. Moreover, the IC50 in assay [3] (setting [5]) was determined as 10.7 µM.

For `O=S(=O)(Nc1ccccc1)c1ccc(NC(=S)Nc2ccc(F)c(Cl)c2)cc1` [AD4-12851], the IC50 in assay [1] (setting [6]) came to 6.51 µM; in assay [3] (setting [7]), 5.39 µM. Besides, the ICW assay in assay [2] is 118.637.
